According to patent US20100173837A1, “DOSING FORMS AND REGIMENS COMPRISING 3-[(R)-2-(N,N-DIMETHYLAMINO)ETHYLTHIO-SAR]-4-(GAMMAHYDROXYMETHYLLEUCINE)CYCLOSPORINE” (priority 2009, published 2010):
pEC50, pIC50: −log10 of the molar value. Converted amounts (≈) assume the structure as drawn. “And” between values parts separate entries of the source, which are not always exact repeats. Equal values may be shown once. Read-outs that look alike come from different tables or passages of the source.

Legend:
[1] = system: Con1 (genotype 1b) bi-cistronic subgenomic replicon in Huh-7; assay: anti-HCV activity in Huh-7 subgenomic replicon, luciferase; assay type: cell-based; conditions: for EC50 / EC90 / pIC50 / IC90: Hepatitis C virus; for EC50: corresponds to IC50 in μM, read-out: mean effective concentration EC50; for EC90: read-out: mean effective concentration EC90
Protocol: The anti-HCV activity of SCY-635 was assessed in a human hepatoma cell line (Huh-7) that contains a Con1 (genotype 1b) bi-cistronic subgenomic replicon. The replicon contains a stable luciferase reporter gene and three cell culture adaptive mutations. The subgenomic replicon contains the 5′ terminus (which includes the HCV Internal Ribosomal Entry Site and the first few amino acids of the HCV core protein) which drives the production of the neomycin phosphotransferase protein. The EMCV IRES element directs the translation of the second cistronic unit that encodes the non-structural proteins NS3, NS4A, NS4B, NS5A, and NS5B. For comparative purposes HCV RNA replication was assessed by quantifying HCV replicon-derived luciferase activity and by quantifying HCV-specific RNA using reverse transcriptase-real time PCR. Duplicate plates were incubated with various concentrations of SCY-635 and were processed either for luciferase activity or for total RNA extraction at 24, 48, 72 and 120 hours after drug treatment. SCY-635 was tested at twelve half-log dilutions ranging from 0.00016 to 50 μM. Stock solutions of each test article were diluted into culture media and added to the plate. After a 72 hour incubation, cells were processed to determine luciferase luminescence as a measurement of antiviral activity. Three replicates were performed and mean values were calculated.

[2] = cell cytotoxicity on replicon cells (LDH release, ribosomal RNA); conditions: human, replicon cells (Huh-7 background)
Protocol: (§1) Cell cytotoxicity was assessed by measuring the release of lactate dehydrogenase from cell membranes and by measuring total ribosomal RNA. […] SCY-635 was assessed for cytotoxicity in primary human hepatocytes. […] SCY-635 was also assessed for cytotoxicity in primary human renal tubular epithelial cells.

replicon cells = assay: as above; conditions: replicon cells
Protocol: as §1

in vitro = conditions: human
Protocol: as §1

Huh-7 cell line = assay: in vitro; conditions: Huh-7 cell line
Protocol: as §1

[3] = system: primary human hepatocytes
Protocol: as §1

[4] = system: primary human renal tubular epithelial cells
Protocol: as §1

[5] = system: full length genotype 1b derived replicon in human hepatoma cell line; assay: anti-HCV activity in full length genotype 1b replicon, RT-PCR; assay type: cell-based; conditions: 72-hour incubation
Protocol: (§2) The anti-HCV activity of SCY-635 was also assessed in a human hepatoma cell line that contains a full length genotype 1b derived replicon. Cells were processed following a 72-hour incubation at 37° C. Intracellular RNA from each well was extracted and the level of HCV-specific RNA was determined by reverse transcriptase-real time PCR. Cytotoxic effects were measured by assessing ribosomal RNA as an indication of total cell numbers.

[6] = system: human hepatoma cell line containing full length replicon; assay: cytotoxicity in full length replicon cells (ribosomal RNA); assay type: cell-based; conditions: concentrations up to 10 μM, 72-hour incubation
Protocol: as §2

hepatitis C (subtype 1) = assay: plasma HCV RNA viral load in HCV-infected subjects, 15-day t.i.d. study; assay type: in vivo, human; conditions: 15 days, per os
Protocol: All human subjects were male (n=20); 75% were African American. Average age was 53.0 years. […] Viral load data from the study described in Example 4 above was measured by the quantitative Roche COBAS […] assay. The test measures HCV RNA in International Units (IU) per mL using real-time Polymerase Chain Reaction (RT-PCR) technology. […] All clinical viral load samples were assayed at LabCorp.

[7] = human, in vivo
Protocol: SCY-635 (given as oral capsules as described in Example 3 above) was examined in a randomized, double-blind, placebo-controlled, multi-dose study to adult volunteers who are chronically infected with hepatitis C (subtype 1). Three cohorts received 100, 200 or 300 milligrams of SCY-635 three times per day (100 mg, 200 mg or 300 mg t.i.d., respectively) per os for 15 consecutive days. The 100 mg t.i.d. cohort was comprised of 7 human subjects (1 placebo and 6 active); the 200 mg t.i.d. cohort was comprised of 6 human subjects (1 placebo and 5 active); and the 300 mg t.i.d. cohort was comprised of 7 human subjects (1 placebo and 6 active).
All human subjects were male (n=20); 75% were African American. Average age was 53.0 years. Average HCV RNA plasma viremia on enrollment was 5,600,000 IU/ml, as measured by the quantitative Roche COBAS taqMan assay. 55% of human subjects were treatment naïve.

[8] = single dose pharmacokinetic study in healthy volunteers; conditions: human, in vivo, 400 mg single dose (capsules), read-out: Mean SCY-635 Plasma Concentration
Protocol: Blood samples were collected from human subjects during the 72-hour interval immediately following administration of a single dose of SCY-635. […] Concentrations of SCY-635 in human blood and plasma samples from the study described in this Example were determined using validated high pressure liquid chromatography/tandem mass spectrometric (HPLC-MS/MS) methods with assay ranges of 50 to 5000 ng/mL for whole blood and 15 to 2000 ng/mL for plasma. The table below summarizes the results obtained (“BLOQ” means below the limit of quantitation).

[9] = human, in vivo; remark: listed apart in the source
Description: SCY-635 (given as oral capsules [400 milligram dose] or tablets [500 and 600 milligram doses] as described in Example 3 above) was examined in a randomized, double-blind, placebo-controlled, pharmacokinetic study in normal healthy adult volunteers. Three cohorts received a single dose of either 400, 500 or 600 milligrams of SCY-635. Each cohort was comprised of 8 human subjects (2 placebo and 6 active). Blood samples were collected from human subjects during the 72-hour interval immediately following administration of a single dose of SCY-635.

[10] = 500 mg b.i.d. 14-day pharmacokinetic study in healthy volunteers; conditions: human, in vivo, 264 h post first dose, read-out: Mean SCY-635 Plasma Concentration
Description: SCY-635 (given as oral tablets as described in Example 3 above) was examined in a double-blind, placebo-controlled, pharmacokinetic study in normal healthy adult volunteers. […] On Day 14, only the morning dose of drug was given and blood samples were collected during the 72-hour interval immediately following administration of the final dose. In addition, blood samples for the measurement of trough drug concentrations were collected from the subjects immediately prior to the administration of SCY-635 on the mornings of Days 2-6 and 8-13. […] Concentrations of SCY-635 in human blood and plasma samples from the two subjects were determined using validated high pressure liquid chromatography/tandem mass spectrometric (HPLC-MS/MS) methods with assay ranges of 50 to 5000 ng/mL for whole blood and 15 to 2000 ng/mL for plasma.

[11] = human, in vivo; remark: listed apart in the source
Description: SCY-635 (given as oral tablets as described in Example 3 above) was examined in a double-blind, placebo-controlled, pharmacokinetic study in normal healthy adult volunteers. […] On Day 14, only the morning dose of drug was given and blood samples were collected during the 72-hour interval immediately following administration of the final dose. In addition, blood samples for the measurement of trough drug concentrations were collected from the subjects immediately prior to the administration of SCY-635 on the mornings of Days 2-6 and 8-13.

[12] = system: HCV-specific RNA replication; conditions: subgenomic and full length replicon systems; cited from earlier work
cyclophilin A [13] = target: T1, cyclophilin A (Homo sapiens, UniProt P62937); conditions: in vitro studies; cited from earlier work
T1 sequence (P62937 whole entry): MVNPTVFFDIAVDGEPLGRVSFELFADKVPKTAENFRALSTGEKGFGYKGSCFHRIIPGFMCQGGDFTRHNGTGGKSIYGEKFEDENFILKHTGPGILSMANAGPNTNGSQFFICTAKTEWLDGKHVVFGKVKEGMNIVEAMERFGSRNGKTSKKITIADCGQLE

cyclophilin A [14] = target: T1, cyclophilin A; conditions: in vitro studies; cited from earlier work; remark: listed apart in the source
[15] = Huh-7, by inspection of the curves
[16] = linear regression, 72 hour incubation, luciferase

Question: What does the source list for `C/C=C/C[C@@H](C)[C@@H](O)[C@H]1C(=O)N[C@@H](CC)C(=O)N(C)[C@H](SCCN(C)C)C(=O)N(C)[C@@H](CC(C)(C)O)C(=O)N[C@@H](C(C)C)C(=O)N(C)[C@@H](CC(C)C)C(=O)N[C@@H](C)C(=O)N[C@H](C)C(=O)N(C)[C@@H](CC(C)C)C(=O)N(C)[C@@H](CC(C)C)C(=O)N(C)[C@@H](C(C)C)C(=O)N1C` [SCY-635, 3-[(R)-2-(N,N-dimethylamino)ethylthio-Sar]-4-(gammahydroxymethylleucine)cyclosporine]?
Answer: EC50 [1, 15]: 0.107 µg/mL (≈ 0.0809 µM); EC50 ([1]; Huh-7, linear regression): 0.121 µg/mL (≈ 0.0915 µM); EC90 ([1]; Huh-7, linear regression, corresponds to IC90 in μM): 0.501 µg/mL (≈ 0.379 µM); pIC50 ([1]; Huh-7, by inspection of the curves, 72 hour incubation, luciferase, read-out: mean IC50 (HCV replication)): 7.09; IC90 ([1]; Huh-7, by inspection of the curves, read-out: mean IC90 (HCV replication)): 333 nM; EC90 [1, 15]: 0.441 µg/mL (≈ 0.334 µM); pIC50 ([1]; Huh-7, linear regression, 72 hour incubation, luciferase, read-out: mean calculated IC50 (HCV replication)): 7.04; IC90 ([1]; Huh-7, linear regression, 72 hour incubation, luciferase, read-out: mean calculated IC90 (HCV replication)): 397 nM; mean IC75 (HCV replication) ([1]; by inspection of the curves): 165 nM; mean IC95 (HCV replication) ([1]; by inspection of the curves): 410 nM; mean IC98 (HCV replication) ([1]; by inspection of the curves): 0.500 µM; mean effective concentration EC75 ([1]; by inspection of the curves): 0.217 µg/mL; mean effective concentration EC95 ([1]; by inspection of the curves): 0.542 µg/mL; mean effective concentration EC98 ([1]; by inspection of the curves): 661 ng/mL; mean effective concentration EC99 ([1]; by inspection of the curves): 2088 ng/mL; sixth IC value of the list (not named; matches EC99) ([1]; by inspection of the curves): 1.580 µM; mean calculated IC75 (HCV replication) [1, 16]: 200 nM; mean calculated IC95 (HCV replication) [1, 16]: 455 nM; mean effective concentration EC75 ([1]; linear regression, corresponds to IC75 in μM): 0.264 µg/mL; mean effective concentration EC95 ([1]; linear regression, corresponds to IC95 in μM): 0.601 µg/mL; CC50 at 72 h [2]: 14200 nM; selectivity index (CC50/IC50) (replicon cells): 129.0; cell cytotoxicity (replicon cells; 72-hour incubation, concentrations up to and including 5 μM): No significant cell cytotoxicity; CC50 at 72 h (in vitro): 13700 nM; selectivity index (CC50/IC50) (Huh-7 cell line): 124.5; 50% inhibitory concentration for cell viability ([3]; human, 48 h): 33 µM; selectivity index ([3]; primary human hepatocytes): approximately 300; 50% inhibitory concentration for cell viability [4]: 60.6 µM; pEC50 ([5]; 3 independent experiments, single values, read-out: EC50 (HCV-specific RNA)): 6.80 and 6.68; EC90 ([5]; 3 independent experiments, single values, read-out: EC90 (HCV-specific RNA)): 710 nM and 790 nM; pEC50 ([5]; Hepatitis C virus, 72 h, 3 independent experiments, single values, read-out: EC50 (HCV-specific RNA)): 6.89; EC90 ([5]; Hepatitis C virus, 72 h, 3 independent experiments, single values, read-out: EC90 (HCV-specific RNA)): 570 nM; pEC50 ([5]; Hepatitis C virus, 72 h, mean of 3 experiments, read-out: mean EC50 (HCV-specific RNA)): 6.77; EC90 ([5]; Hepatitis C virus, 72 h, mean of 3 experiments, read-out: mean EC90 (HCV-specific RNA)): 690 nM; cell cytotoxicity [6]: absence of significant cell cytotoxicity; mean nadir value of plasma HCV RNA below baseline (hepatitis C (subtype 1); 100 mg t.i.d.): less than 0.5 log10; median nadir value of plasma HCV RNA below baseline (hepatitis C (subtype 1); 100 mg t.i.d.): less than 0.5 log10; mean nadir value of plasma HCV RNA below baseline (hepatitis C (subtype 1); 200 mg t.i.d.): less than 0.5 log10; median nadir value of plasma HCV RNA below baseline (hepatitis C (subtype 1); 200 mg t.i.d.): less than 0.5 log10; group mean nadir value of plasma HCV RNA below baseline (hepatitis C (subtype 1); 300 mg t.i.d.): 2.33 log10; group median nadir value of plasma HCV RNA below baseline (hepatitis C (subtype 1); 300 mg t.i.d.): 1.90 log10; dose limiting toxicity [7]: no evidence of a dose limiting toxicity; concentration at 8 h [8]: 107 ng/mL; dose limiting toxicity [9]: no evidence of a dose limiting toxicity; concentration at 264 h [10]: 411 ng/mL; dose limiting toxicity [11]: no evidence of a dose limiting toxicity; inhibition of HCV-specific RNA replication [12]: potent and selective inhibition; binding to cyclophilin A (cyclophilin A [13]): capable of binding to cyclophilin A; inhibition of peptidyl prolyl isomerase activity of cyclophilin A (cyclophilin A [14]): inhibiting its intrinsic peptidyl prolyl isomerase activity
